In US20170057955A1, “Pyridopyrimidinone Compounds for Modulating the Catalytic Activity of Histone Lysine Demethylases (KDMs)” (Dong-A Socio Holdings Co., Ltd., priority 2015, published 2017):

Target: T1, Recombinant human JARID1B/KDM5B (Homo sapiens, UniProt Q9UGL1)
T1 construct: purchased Active Motif 31432; host or cells: Sf9 insect cells
Assay: LANCE Ultra TR-FRET JARID1B (KDM5B) demethylase inhibition assay
Type: biochemical
Conditions: 0.1 uM of test-compounds, FLAG-JARID1B, 500 nM biotinylated H3K4me3 peptide substrate, 30 min at room temperature
Source text: FLAG-tagged JARID1B (also known as KDM5B) protein was screened against 49 compounds. For this compound screening, LANCE Ultra time-resolved fluorescence resonance energy transfer (TR-FRET) assay was employed using a europoium (Eu)-labeled antibody that can specifically recognize mono- or dimethylated peptides (H3K4me2/1) and ULight-streptavidin (ULight-SA), a small molecule fluorescent dye. When irradiated at 340 nm, the energy from the Eu donor is transferred to the ULight acceptor dye which, in turn, emits light primarily at 665 nm. The ratio between the intensity of primary emission at 665 nm and that of secondary emission at […] was used to quantify the level of lysine methylation. As JARID1B removes more methyl moieties from tri-methylated substrate peptides (H3K4me3), the ratio increases until the enzyme reaction is terminated. In case, therefore, the compounds disrupt the enzymatic activity completely, the ratio becomes equal to a background value.
Recombinant human JARID1B/KDM5B (accession number NP_006609) of molecular weight 179.9 KDa was expressed in Sf9 insect cells and contains an N-terminal FLAG tag. The enzyme was obtained from Active Motif (Catalog No. 31432). The tri-methylated histone substrate peptide of purity greater than 95% was a synthetic peptide in which the first 21 amino acids correspond to the human histone H3 sequence with three extra amino acids and a biotin motif (GGK-biotin) linked to the C-terminus [sequence: ART-K(Me3)-QTARKSTGGKAPRKQLA-GGK-biotin-OH], (AnaSpec, Fremont, Calif. Catalog. No. ANA-1413). The reference inhibitor compound tranylcypromine (or trans-2-phenylcyclopropylamine hydrochloride, also known as, 2-PCPA) was purchased from Sigma (St. Louis, Mo. Cat. no. P8511). ULight-labeled streptavidin (ULight-SA, Catalog no. TRF0102), Eu-W1024-labeled anti-methyl-Histone H3 Lysine 4 (H3K4me1-2) Antibody (Catalog no. TRF0402), and LANCE detection buffer 10× (Catalog no. CR97-100) were obtained from PerkinElmer (Montreal, Quebec, Canada). The TR-FRET experiments were carried out in white, low-volume 384-wellplates purchased from PerkinElmer (ProxiPlate_-384 Plus, Catalog no. 6008280).
The TR-FRET signal was measured in the presence both of the bio-H3K4me3 peptide and FLAG-JARID1B by detecting any H3K4me2/1 peptide produced in the assay system. Assays using only the bio-H3K4me2 peptide were served as a positive control. Robust enzymatic progressions were observed by using JARID1B at concentrations ranging from 10 to 30 nM. In a typical TR-FRET experiment, JARID1B was pre-incubated with or without 0.1 uM of test-compounds (containing 1% DMSO final) for 5 min. The enzymatic reactions were initiated by the addition of 500 nM biotinylated H3K4me3 peptide substrate plus 500 uM of 2-OG 25 uM Fe(II) and 2 mM ascorbate. The reaction buffer also contained 50 mM Hepes (pH7.5), 0.01% (v/v) Tween 20, and 50 mM NaCl. The reaction mixture was incubated for 30 min at room temperature before reading on an EnVision plate reader (PerkinElmer, Waltham, Mass.).

T1 sequence (Q9UGL1 whole entry): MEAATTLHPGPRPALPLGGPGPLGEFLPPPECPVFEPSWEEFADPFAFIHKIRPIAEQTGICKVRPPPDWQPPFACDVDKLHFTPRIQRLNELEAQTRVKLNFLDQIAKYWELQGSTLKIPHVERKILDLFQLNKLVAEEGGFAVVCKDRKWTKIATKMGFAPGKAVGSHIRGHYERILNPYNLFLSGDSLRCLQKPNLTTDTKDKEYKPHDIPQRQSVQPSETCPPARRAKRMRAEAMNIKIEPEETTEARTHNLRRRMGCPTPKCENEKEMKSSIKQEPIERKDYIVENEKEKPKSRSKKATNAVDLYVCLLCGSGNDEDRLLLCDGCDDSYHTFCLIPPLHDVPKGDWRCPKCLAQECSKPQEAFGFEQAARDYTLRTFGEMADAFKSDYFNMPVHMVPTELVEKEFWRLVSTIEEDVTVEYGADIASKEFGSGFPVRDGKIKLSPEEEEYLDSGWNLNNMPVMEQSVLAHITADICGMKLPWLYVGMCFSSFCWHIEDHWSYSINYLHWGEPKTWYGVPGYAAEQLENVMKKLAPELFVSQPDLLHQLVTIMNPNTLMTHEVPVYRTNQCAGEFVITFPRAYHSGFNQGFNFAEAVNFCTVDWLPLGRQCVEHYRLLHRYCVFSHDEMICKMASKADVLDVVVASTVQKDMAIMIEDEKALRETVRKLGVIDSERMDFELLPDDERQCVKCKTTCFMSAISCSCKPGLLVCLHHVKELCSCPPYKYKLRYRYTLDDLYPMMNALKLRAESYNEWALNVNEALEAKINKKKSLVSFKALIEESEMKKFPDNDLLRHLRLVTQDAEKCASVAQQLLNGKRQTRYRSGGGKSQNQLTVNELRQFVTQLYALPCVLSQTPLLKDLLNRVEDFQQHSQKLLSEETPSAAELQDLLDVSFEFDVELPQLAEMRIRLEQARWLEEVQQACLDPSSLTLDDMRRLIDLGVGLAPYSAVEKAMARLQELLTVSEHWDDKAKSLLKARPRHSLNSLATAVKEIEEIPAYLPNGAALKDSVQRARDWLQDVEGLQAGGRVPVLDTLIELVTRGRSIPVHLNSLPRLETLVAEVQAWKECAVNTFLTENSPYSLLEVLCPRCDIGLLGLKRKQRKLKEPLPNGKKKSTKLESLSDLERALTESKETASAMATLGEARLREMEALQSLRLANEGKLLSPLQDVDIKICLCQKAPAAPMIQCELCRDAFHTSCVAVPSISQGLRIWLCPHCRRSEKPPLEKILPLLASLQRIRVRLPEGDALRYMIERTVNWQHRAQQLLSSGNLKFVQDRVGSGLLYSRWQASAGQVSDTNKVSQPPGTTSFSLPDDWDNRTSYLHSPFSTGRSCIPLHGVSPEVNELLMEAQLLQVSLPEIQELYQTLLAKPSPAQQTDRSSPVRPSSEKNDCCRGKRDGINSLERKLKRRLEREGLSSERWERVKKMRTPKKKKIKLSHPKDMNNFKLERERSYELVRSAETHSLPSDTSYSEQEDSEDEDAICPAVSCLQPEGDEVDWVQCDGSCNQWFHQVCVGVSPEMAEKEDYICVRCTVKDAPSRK

Row | inhibition at 0.1 µM [%] | Compound
1 | 20 to 50 | O=c1[nH]cnc2c(-c3cnn(CCN4CCOCC4)c3)nccc12 [Compound 65, 8-(1-(2-morpholinoethyl)-1H-pyrazol-4-yl)pyrido[3,4-d]pyrimidin-4(3H)-one]
2 | < 20 | O=c1[nH]c(COc2ccc(Cc3ccccc3)cc2)nc2c(-c3nccs3)nccc12 [Compound 66, 2-((4-benzylphenoxy)methyl)-8-(thiazol-2-yl)pyrido[3,4-d]pyrimidin-4(3H)-one]
3 | 20 to 50 | O=c1[nH]c(COc2ccc(Cc3ccccc3)cc2)nc2c(-c3ccccn3)nccc12 [Compound 67, 2-((4-benzylphenoxy)methyl)-8-(pyridin-2-yl)pyrido[3,4-d]pyrimidin-4(3H)-one]
4 | < 20 | Nc1ncc(-c2nccc3c(=O)[nH]c(COc4ccc(Cc5ccccc5)cc4)nc23)s1 [Compound 68, 8-(2-aminothiazol-5-yl)-2-((4-benzylphenoxy)methyl) pyrido[3,4-d]pyrimidin-4(3H)-one]
5 | < 20 | Nc1ccn(-c2nccc3c(=O)[nH]c(COc4ccc(Cc5ccccc5)cc4)nc23)n1 [Compound 69, 8-(3-amino-1H-pyrazol-1-yl)-2-((4-benzylphenoxy)methyl) pyrido[3,4-d]pyrimidin-4(3H)-one]
6 | 20 to 50 | Cn1cnc(-c2nccc3c(=O)[nH]c(COc4ccc(Cc5ccccc5)cc4)nc23)c1 [Compound 70, 2-((4-benzylphenoxy)methyl)-8-(1-methyl-1H-imidazol-4-yl)pyrido[3,4-d]pyrimidin-4(3H)-one]
7 | ≥ 50 | Nc1nc(-c2nccc3c(=O)[nH]c(COc4ccc(Cc5ccccc5)cc4)nc23)cs1 [Compound 71, 8-(2-aminothiazol-4-yl)-2-((4-benzylphenoxy)methyl) pyrido[3,4-d]pyrimidin-4(3H)-one]
8 | 20 to 50 | C=CCNc1nc(-c2nccc3c(=O)[nH]c(COc4ccc(Cc5ccccc5)cc4)nc23)cs1 [Compound 72, 8-(2-(allylamino)thiazol-4-yl)-2-((4-benzylphenoxy)methyl) pyrido[3,4-d]pyrimidin-4(3H)-one]
9 | < 20 | O=c1[nH]c(COc2ccc(Cc3ccccc3)cc2)nc2c(-c3csc(Nc4ccccc4)n3)nccc12 [Compound 73, 2-((4-benzylphenoxy)methyl)-8-(2-(phenylamino)thiazol-4-yl)pyrido[3,4-d]pyrimidin-4(3H)-one]
10 | 20 to 50 | O=c1[nH]c(COc2ccc(F)c(Cl)c2)nc2c(-c3nccs3)nccc12 [Compound 74, 2-((3-chloro-4-fluorophenoxy)methyl)-8-(thiazol-2-yl)pyrido[3,4-d]pyrimidin-4(3H)-one]
11 | < 20 | Nc1ncc(-c2nccc3c(=O)[nH]c(COc4ccc(F)c(Cl)c4)nc23)s1 [Compound 75, 8-(2-aminothiazol-5-yl)-2-((3-chloro-4-fluorophenoxy)methyl) pyrido[3,4-d]pyrimidin-4(3H)-one]
12 | < 20 | O=c1[nH]c(COc2ccc(F)c(Cl)c2)nc2c(-c3cc[nH]n3)nccc12 [Compound 76, 2-((3-chloro-4-fluorophenoxy)methyl)-8-(1H-pyrazol-3-yl)pyrido[3,4-d]pyrimidin-4(3H)-one]
13 | 20 to 50 | Cn1cnc(-c2nccc3c(=O)[nH]c(COc4ccc(F)c(Cl)c4)nc23)c1 [Compound 77, 2-((3-chloro-4-fluorophenoxy)methyl)-8-(1-methyl-1H-imidazol-4-yl)pyrido[3,4-d]pyrimidin-4(3H)-one]
14 | < 20 | O=c1[nH]c(COc2ccc(F)c(Cl)c2)nc2c(-c3ccc(N4CCOCC4)nc3)nccc12 [Compound 78, 2-((3-chloro-4-fluorophenoxy)methyl)-8-(6-morpholinopyridin-3-yl)pyrido[3,4-d]pyrimidin-4(3H)-one]
15 | 20 to 50 | O=c1[nH]c(COc2ccc(F)c(Cl)c2)nc2c(-c3cnccn3)nccc12 [Compound 79, 2-((3-chloro-4-fluorophenoxy)methyl)-8-(pyrazin-2-yl)pyrido[3,4-d]pyrimidin-4(3H)-one]
16 | 20 to 50 | O=c1[nH]c(COc2ccc(F)c(Cl)c2)nc2c(-c3ccccn3)nccc12 [Compound 80, 2-((3-chloro-4-fluorophenoxy)methyl)-8-(pyridin-2-yl)pyrido[3,4-d]pyrimidin-4(3H)-one]
17 | ≥ 50 | O=c1[nH]c(COc2ccc(F)c(Cl)c2)nc2c(-c3csc(NCCO)n3)nccc12 [Compound 81, 2-((3-chloro-4-fluorophenoxy)methyl)-8-(2-((2-hydroxyethyl)amino)thiazol-4-yl)pyrido[3,4-d]pyrimidin-4(3H)-one]
18 | ≥ 50 | O=c1[nH]c(COc2ccc(F)c(Cl)c2)nc2c(-c3csc(NCCN4CCOCC4)n3)nccc12 [Compound 82, 2-((3-chloro-4-fluorophenoxy)methyl)-8-(2-((2-morpholinoethyl)amino)thiazol-4-yl)pyrido[3,4-d]pyrimidin-4(3H)-one]
19 | ≥ 50 | C[C@@H](O)CNc1nc(-c2nccc3c(=O)[nH]c(COc4ccc(F)c(Cl)c4)nc23)cs1 [Compound 83, (R)-2-((3-chloro-4-fluorophenoxy)methyl)-8-(2-((2-hydroxypropyl)amino)thiazol-4-yl)pyrido[3,4-d]pyrimidin-4(3H)-one]
20 | ≥ 50 | C[C@H](O)CNc1nc(-c2nccc3c(=O)[nH]c(COc4ccc(F)c(Cl)c4)nc23)cs1 [Compound 84, (S)-2-((3-chloro-4-fluorophenoxy)methyl)-8-(2-((2-hydroxypropyl)amino)thiazol-4-yl)pyrido[3,4-d]pyrimidin-4(3H)-one]
21 | ≥ 50 | O=c1[nH]c(COc2ccc(F)c(Cl)c2)nc2c(-c3csc(NCC4CCCO4)n3)nccc12 (stereo not drawn) [Compound 85, 2-((3-chloro-4-fluorophenoxy)methyl)-8-(2-(((tetrahydrofuran-2-yl)methyl)amino)thiazol-4-yl)pyrido[3,4-d]pyrimidin-4(3H)-one]
22 | ≥ 50 | COCCNc1nc(-c2nccc3c(=O)[nH]c(COc4ccc(F)c(Cl)c4)nc23)cs1 [Compound 86, 2-((3-chloro-4-fluorophenoxy)methyl)-8-(2-((2-methoxyethyl)amino)thiazol-4-yl)pyrido[3,4-d]pyrimidin-4(3H)-one]
23 | ≥ 50 | CN(C)CCNc1nc(-c2nccc3c(=O)[nH]c(COc4ccc(F)c(Cl)c4)nc23)cs1 [Compound 87, 2-((3-chloro-4-fluorophenoxy)methyl)-8-(2-((2-(dimethylamino)ethyl)amino)thiazol-4-yl)pyrido[3,4-d]pyrimidin-4(3H)-one]
24 | ≥ 50 | NCCNc1nc(-c2nccc3c(=O)[nH]c(COc4ccc(F)c(Cl)c4)nc23)cs1 [Compound 88, 8-(2-((2-aminoethyl)amino)thiazol-4-yl)-2-((3-chloro-4-fluorophenoxy)methyl) pyrido[3,4-d]pyrimidin-4(3H)-one]
25 | ≥ 50 | CN1CCN(CCNc2nc(-c3nccc4c(=O)[nH]c(COc5ccc(F)c(Cl)c5)nc34)cs2)CC1 [Compound 89, 2-((3-chloro-4-fluorophenoxy)methyl)-8-(2-((2-(4-methylpiperazin-1-yl)ethyl)amino)thiazol-4-yl)pyrido[3,4-d]pyrimidin-4(3H)-one]
26 | ≥ 50 | O=c1[nH]c(COc2ccc(F)c(Cl)c2)nc2c(-c3csc(NCCCO)n3)nccc12 [Compound 90, 2-((3-chloro-4-fluorophenoxy)methyl)-8-(2-((3-hydroxypropyl)amino)thiazol-4-yl)pyrido[3,4-d]pyrimidin-4(3H)-one]
27 | ≥ 50 | CN(C)CCCNc1nc(-c2nccc3c(=O)[nH]c(COc4ccc(F)c(Cl)c4)nc23)cs1 [Compound 91, 2-((3-chloro-4-fluorophenoxy)methyl)-8-(2-((3-(dimethylamino)propyl)amino)thiazol-4-yl)pyrido[3,4-d]pyrimidin-4(3H)-one]
